Assay results: patent publication US8884097B1, “Method to condition an invertebrate to detect a concentration range of a chemical compound” (The United States of America as represented by the …, priority 2011, dated 2014)
Entries after “also recorded” stand apart in the source; their conditions may differ.

Tests used:
[1] = system: Microplitis croceipes; assay: Conditioned food-searching response of wasps to individual odor concentrations; assay type: in vivo
Description: Female wasps were conditioned to a 30 μl solution of indole (Spectrum Chemical MFG CORP., Gardena, Calif.) dissolved in dichloromethane at either 100 μg/ml or 1 μg/ml. The solvent was allowed to evaporate for one min before the assay. The conditioning arena consisted of a 9 cm d, 1.5 cm h metal ring covered with aluminum foil that was placed inside a glass petri dish (10 cm d and 1 cm h) containing the compound-laden filter paper (2.5 cm d). A small (4 mm^2) piece of filter paper laden with the sugar water (1 molar sucrose solution) was placed at the center of the metal ring covered with aluminum foil. A total of 9 holes (ca 1 mm d) were punctured around the tissue paper so that diffusing volatiles could be perceived as they fed on the sugar water. Wasps were allowed to feed for 10 s three times with 30 s between feedings. All conditioning and testing was done under a chemical fume hood. The conditioning arena was replaced with fresh materials after every 5 females (ca 10-15 min). Females were placed in a Plexiglas cage with water for 2 hrs before testing. A total of 20 females were conditioned per day over 2 days.
All test solutions were allowed to evaporate for 1 minute before being presented to the wasps. The test arena was the same as the conditioning arena except that only a single (ca 1 mm d) hole was punctured at the center of the aluminum foil covered metal ring. Wasps were placed close to the hole using a transfer vial. Measured were food-specific behaviors (Wäckers et al., 2002) which included intense substrate antennation with frequent tight turning, a distinct lowering of the head for food searching and attempts to enter the hole. Responses parameters included a recordation of both the number of turns and overall duration of the food searching. Each female was presented a single odor concentration. A total of 20 females (10 to high and 10 to low concentrations) were tested per day over 2 days. Kruskal-Wallis non-parametric ANOVA was used to test the effect of concentration on wasp responses (StatSoft, Inc. 2003).
The arena and procedure for testing were as described in Example 1. However, the wasps were conditioned via positive food conditioning of sugar-water to indole at 1 μg/ml. Additionally, the same wasp was also negatively food conditioned to 100 μg/ml of indole with water. Each female was test with a single indole concentration at either 100 μg/ml of indole or at 1 μg/ml. A total of 20 females (10 to high and 10 to low concentrations) were tested per day over 2 days.
The arena and procedure for testing were as described in Example 1. However, the wasps were conditioned via positive food conditioning of sugar-water to 30 μl of conditioning solution of skatole dissolved in dichloromethane at either 0.001 μg/ml, 0.01 μg/ml, 0.1 μg/ml, 1 μg/ml, 10 μg/ml, or 100 μg/ml. A 1 molar sucrose solution was used as the unconditioned stimulus (reward).

[2] = system: Microplitis croceipes; assay: as above; assay type: in vivo; conditions: positively conditioned to 100 μg/ml and 1000 μg/ml, tested at 1000 μg/ml
[3] = conditioned to 0.1 μg/ml, tested at 0.1 μg/ml
[4] = conditioned to 0.1 μg/ml, tested at 1 μg/ml
[5] = conditioned to 1 μg/ml, tested at 0.1 μg/ml
[6] = conditioned to 1 μg/ml, tested at 1 μg/ml
[7] = conditioned to 1 μg/ml, tested at 10 μg/ml
[8] = conditioned to 10 μg/ml, tested at 1 μg/ml
[9] = conditioned to 10 μg/ml, tested at 10 μg/ml
[10] = conditioned to 100 μg/ml, tested at 100 μg/ml

C[C@]12CCC(=O)C[C@@H]1CC[C@@H]1[C@@H]2CC[C@]2(C)C=CC[C@@H]12 [androstenone, 5α-androst-16-en-3-one]
response of conditioned wasps (food searching time and turns) ([1]; conditioned to 0.01 μg/ml, tested at 0.01 μg/ml): responded to the conditioning concentration
response of conditioned wasps (food searching time and turns) ([1]; conditioned to 0.1 μg/ml, tested at 0.01 μg/ml): only responded to the conditioning concentration
response of conditioned wasps (food searching time and turns) [1, 3]: only responded to the conditioning concentration
response of conditioned wasps (food searching time and turns) [1, 4]: only responded to the conditioning concentration
response of conditioned wasps (food searching time and turns) [1, 5]: only responded to the conditioning concentration
response of conditioned wasps (food searching time and turns) [1, 6]: only responded to the conditioning concentration
response of conditioned wasps (food searching time and turns) [1, 7]: only responded to the conditioning concentration
response of conditioned wasps (food searching time and turns) [1, 8]: did not respond to either concentration
response of conditioned wasps (food searching time and turns) [1, 9]: did not respond to either concentration
conditioned response to the individual volatile ([1]; single odor experiment): weak

c1ccc2[nH]ccc2c1 [indole]
response of conditioned wasps (food searching time and turns) [1, 6]: responded to the conditioned concentration
response of conditioned wasps (food searching time and turns) ([1]; conditioned to 1 μg/ml, tested at 100 μg/ml): responded
response of conditioned wasps (food searching time and turns) ([1]; conditioned to 100 μg/ml, tested at 1 μg/ml): did not respond
response of conditioned wasps (food searching time and turns) [1, 10]: responded to the conditioned concentration
response of conditioned wasps (food searching time and turns) ([1]; positively conditioned to 1 μg/ml and negatively conditioned to 100 μg/ml, tested at 1 μg/ml): responded to the conditioned concentration
response of conditioned wasps (food searching time and turns) ([1]; positively conditioned to 1 μg/ml and negatively conditioned to 100 μg/ml, tested at 100 μg/ml): did not respond to the negatively conditioned concentration
conditioned response to the individual volatile ([1]; single odor experiment): respond reliably
duration of the conditioned response compared with skatole ([1]; single odor experiment): more prolonged response

C=CC(C)=CCC=C(C)C [ocimene, reference compound]
response of conditioned wasps to a non-conditioned odor ([1]; single odor experiment, non-conditioned floral odor): do not respond

Cc1c[nH]c2ccccc12 [skatole, 3-methyl-indole]
response of conditioned wasps (food searching time and turns) [1, 3]: no responses
response of conditioned wasps (food searching time and turns) [1, 4]: no responses
response of conditioned wasps (food searching time and turns) [1, 5]: responded to both concentrations; also recorded: able to detect it
response of conditioned wasps (food searching time and turns) [1, 6]: responded to both concentrations
response of conditioned wasps (food searching time and turns) [1, 7]: only responded to the conditioning concentration
response of conditioned wasps (food searching time and turns) [1, 8]: responded to both skatole concentrations
response of conditioned wasps (food searching time and turns) [1, 9]: responded to both skatole concentrations
response of conditioned wasps (food searching time and turns) ([1]; conditioned to 10 μg/ml, tested at 100 μg/ml): only responded to the conditioning concentration
response of conditioned wasps (food searching time and turns) ([1]; conditioned to 100 μg/ml, tested at 10 μg/ml): responded to both skatole concentrations
response of conditioned wasps (food searching time and turns) [1, 10]: responded to both skatole concentrations
response of conditioned wasps (food searching time and turns) ([1]; conditioned to 100 μg/ml, tested at 1 mg/ml): only responded to the conditioning concentration
response of conditioned wasps (food searching time and turns) ([1]; positively conditioned to 100 μg/ml and 1000 μg/ml, tested at 10 μg/ml): responded
response of conditioned wasps (food searching time and turns) ([1]; positively conditioned to 100 μg/ml and 1000 μg/ml, tested at 100 μg/ml): responded to both of the conditioning concentrations
conditioned response to the individual volatile ([1]; single odor experiment): respond reliably
response of conditioned wasps (food searching time and turns) [2]: responded to both of the conditioning concentrations
